Results from US8338436B2, “Amorphous form of N-{2-fluoro-5-[3-(thiophene-2-carbonyl)-pyrazolo[1,5-a]pyrimidin-7-yl]-phenyl}-N-methyl-acetamide” (Ferrer International, S.A., priority 2006, dated 2012).

Tests used:
[1] = Solubility of solid forms of compound (I)
[2] = tested on: GABAA (γ-aminobutyric acidA) receptors; conditions: as described in PCT/EP2006/063243 and U.S. 60/692866; cited from earlier work
[3] = tested on: GABAA (γ-aminobutyric acidA) receptors; test: GABAA receptor ligand activity; assay type: binding; conditions: amorphous form, stated to be like crystalline compound (I)

With `CC(=O)N(C)c1cc(-c2ccnc3c(C(=O)c4cccs4)cnn23)ccc1F` [crystalline form of compound (I), N-{2-Fluoro-5-[3-(thiophene-2-carbonyl)-pyrazolo[1,5-a]pyrimidin-7-yl]-phenyl}-N-methyl-acetamide] as the compound, how does the solubility ([1]; crystalline form, qualitative statement) read?
The solubility was “very low soluble”.

With `CC(=O)N(C)c1cc(-c2ccnc3c(C(=O)c4cccs4)cnn23)ccc1F` [compound (I), N-{2-Fluoro-5-[3-(thiophene-2-carbonyl)-pyrazolo[1,5-a]pyrimidin-7-yl]-phenyl}-N-methyl-acetamide] as the compound, how does the “ligand of GABAA receptors” value [2] read?
The value was “potent ligand”.

Which results are given for `CC(=O)N(C)c1cc(-c2ccnc3c(C(=O)c4cccs4)cnn23)ccc1F` [amorphous form, N-{2-Fluoro-5-[3-(thiophene-2-carbonyl)-pyrazolo[1,5-a]pyrimidin-7-yl]-phenyl}-N-methyl-acetamide]?
ligand of GABAA [3]: potent ligand; solubility of the amorphous form relative to crystalline product ([1]; amorphous versus crystalline product): about twice as high
